# Legend:
# [1] = tested on: human dermal fibroblast cultures; experiment: Stimulation of mitochondrial metabolic activity (MTT method); type: cell-based; conditions: 10 ng/ml; positive control
# From the text: In order to maintain youthful appearance, skin needs to constantly replace and regenerate its damaged components. This is predominantly the role of dermal fibroblasts. How well this job is done depends on the metabolic vigor of these cells as damaged or dormant fibroblasts will not be able to actively produce the replacement parts for the skin. This is why the stimulation of their metabolic activity is viewed as beneficial to the skin, not unlike the stimulation of metabolic activity is beneficial to the muscle. We tested the effect of RD1071 on the metabolic activity of mitochondria of human dermal fibroblast cultures using MTT method (Berridge et al., 1993). Mitochondria are cellular powerhouses producing energy (ATP) for the entire cell. […] Thus, example 1 (RD1071) increases cellular metabolism in a dose-dependant manner. The positive control in this experiment is use of basic fibroblast growth factor, bFGF at 10 ng/ml concentration.
# fibroblast cultures = experiment: Total protein production stimulation (method of Skehan et al.); type: cell-based, human; conditions: 10 ng/ml; positive control
# Protocol: The stimulation of metabolic activity by RD1071 also translated into an increase of total protein content in fibroblast cultures. […] For example, UV radiation and aging are associated with the increased proteolytic activity in the skin. The stimulation of total protein production could counterbalance the loss of proteins caused by this increased proteolytic activity. Total protein was measured using the method of Skehan et al. (1990). […] The basic fibroblast growth factor, bFGF, was again used as a positive control.
substance,measurement,setting,value
"bFGF: basic fibroblast growth factor, positive control at 10 ng/ml",Mitochondrial Metabolism % Control,[1],174 % Control
same,Protein Stimulation % Control,fibroblast cultures,118 % Control

# From patent US8097581B2, “Anti-wrinkle cosmetic composition” (Grant Industries Inc., priority 2007, dated 2012)
